Measurements from US11160767B2, “4,4′-trans-dihydroxystilbene for use in treating cancer” (The George Washington University, a Congressionally …, priority 2017, dated 2021).

Assays:
RRM2 = biological target: T1, RRM2 (Homo sapiens, UniProt P31350); test: Ubiquitination assay; assay type: cell-based; conditions: HCT116 cells, with MG-132 pre-treatment
T1 construct: endogenous in cells; host or cells: HCT116
T1 sequence (P31350 1-389): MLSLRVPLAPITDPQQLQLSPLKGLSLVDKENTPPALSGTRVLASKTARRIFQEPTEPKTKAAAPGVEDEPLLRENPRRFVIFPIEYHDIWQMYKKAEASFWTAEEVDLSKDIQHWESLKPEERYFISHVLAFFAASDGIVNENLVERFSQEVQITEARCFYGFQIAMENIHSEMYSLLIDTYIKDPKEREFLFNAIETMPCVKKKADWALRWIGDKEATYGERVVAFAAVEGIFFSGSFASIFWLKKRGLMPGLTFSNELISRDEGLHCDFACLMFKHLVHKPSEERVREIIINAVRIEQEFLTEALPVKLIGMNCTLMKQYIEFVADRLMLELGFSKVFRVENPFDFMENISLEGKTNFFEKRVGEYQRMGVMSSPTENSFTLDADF
Procedure: It was next investigated whether treatment with DHS leads to reduced levels of RRM2 through the proteasome degradation pathway. […] To confirm whether degradation of RRM1 is dependent on RRM2, RRM1 or RRM2 expression was knocked down by treatment with siRNAs and resultant protein amounts were detected. […] Next, a ubiquitination assay with MG-132 pre-treatment was performed to determine whether a ubiquitination reaction is involved in DHS-mediated RRM2 degradation. […] According to the literature, Cyclin F is the E3 ligase that ubiquitinates RRM2 (D'Angiolella et al., 2012). Thus, the amount of RRM2 in cells was determined after knockdown of Cyclin F by siRNA. […] Cell viability after DHS exposure was also investigated in cells in which either RRM2 or Cyclin F expression was knocked down by siRNA.

HCT116 cells = test: Cell-cycle assay; assay type: cell-based, human; conditions: 10 μM
Procedure: A cell-cycle assay was conducted to study whether DHS would affect cell-cycle progression.

[1] = system: HCT116 cells, U2OS cells, MDA-231/GFP cells, and PANC-1 cells; test: Cytotoxicity across the four cancer cell lines (SAR summary); assay type: cell-based
Procedure: In vitro cytotoxicity assays. Cells growing in the Log phase were treated with various compounds at different concentrations (generally 0.137 to 100 μM) for 72 hours at 37° C. SRB assay (Vichai and Kirtikara, 2006) was performed and the absorbance at 510 nm was read with a plate reader. The proliferation rate was calculated according to the Manufacturer's instruction. The IC50 value for each compound was determined from dose-effect relationship using the CompuSyn software (version 1.0.1; CompuSyn, Inc, Paramus, N.J.) (Chou, 2006). Cell proliferating doubling time was monitored over a period of 72 hours.
Based on identification of resveratrol as a lead compound in the drug screening assays, the anti-cancer activity of synthetic resveratrol analogs (FIG. 2) was next investigated and compared to resveratrol using HCT116 cells, U2OS cells, MDA-231/GFP cells, and PANC-1 cells.
The structure activity relationship (SAR) of the derivatives of resveratrol were considered.

Oc1ccc(/C=C/c2ccc(O)cc2)cc1 [DHS, 4,4′-trans-dihydroxystilbene]
Ubiquitinated RRM2 (RRM2): ubiquitinated RRM2 was increased by DHS treatment
Effect on cell-cycle progression (HCT116 cells): robust S-phase arrest
Potency relative to resveratrol according to the IC50 values [1]: 10 times
IC50 ([1]; range over four cell lines): 2.3 to 22 µM
